Reference: publication PMC9266368, “Synthesis and Biological Evaluation of Small Molecules as Potential Anticancer Multitarget Agents” (International Journal of Molecular Sciences, 2022)

What was measured:
[1] = system: HT-29 (colon adenocarcinoma); assay: MTT cell viability assay, HT-29; assay type: cell-based; conditions: Homo sapiens, HT-29, 48 h, 2 days incubation, average ±SD of three experiments
Method: (§1) The effects of triazole derivatives 1–26 on the cell viability were determined by MTT assay, and the IC50 values were determined toward the human tumor cell lines HT-29 (colon adenocarcinoma), A-549 (lung adenocarcinoma), and MCF-7 (breast adenocarcinoma), as well as toward the non-tumor cell line HEK-293 (human embryonic kidney cells).
(§2) In 96-well plates, 3 × 10^3 (A549 and HEK-293) or 5 × 10^3 (HT-29, MCF-7) cells per well were incubated with serial dilutions of the tested compounds in a total volume of 100 μL of their growth media. The 3-(4,5-dimethylthiazol-2-yl)-2,5-diphenyltetrazolium bromide (MTT; Sigma Chemical Co.) dye reduction assay in 96-well microplates was used. After 2 days of incubation (37 °C, 5% CO2 in a humid atmosphere), 10 μL of MTT (5 mg/mL in phosphate-buffered saline, PBS) was added to each well, and the plate was incubated for a further 3 h (37 °C). After that, the supernatant was discarded and replaced by 100 µL of DMSO to dissolve formazan crystals. The absorbance was then read at 550 nm by spectro-photometry. For all concentrations of compound, cell viability was expressed as the percentage of the ratio between the mean absorbance of treated cells and the mean absorbance of untreated cells. Three independent experiments were performed, and the IC50 values (i.e., concentration half inhibiting cell proliferation) were graphically determined by using GraphPad Prism 4 software (2019).

[2] = system: A-549 (lung adenocarcinoma); assay: MTT cell viability assay, A-549; assay type: cell-based; conditions: Homo sapiens, A549, 48 h, 2 days incubation, average ±SD of three experiments
Method: as §1, §2

[3] = system: MCF-7 (breast adenocarcinoma); assay: MTT cell viability assay, MCF-7; assay type: cell-based; conditions: Homo sapiens, MCF7, 48 h, 2 days incubation, average ±SD of three experiments
Method: as §1, §2

[4] = system: HEK-293 (human embryonic kidney cells); assay: MTT cell viability assay, HEK-293; assay type: cell-based; conditions: HEK293, 48 h, 2 days incubation, non-tumor cell line, average ±SD of three experiments
Method: as §1, §2

[5] = target: T1, membrane PD-L1 (mPD-L1) (Homo sapiens, UniProt Q9NZQ7); assay: Membrane PD-L1 relative quantification by flow cytometry; assay type: cell-based; conditions: 24 h, 100 or 10 μM (Table 7), percentage referred to DMSO control
T1 construct: endogenous in cells; host or cells: HT-29, A-549, MCF-7
Method: Based on antiproliferative activity of synthetized derivatives, we decided to study the effect of the amino derivatives 14–26 on the expression of both membrane targets PD-L1 and VEGFR-2 (mPD-L1 and mVEGFR-2). The evaluation was performed on three cancer cell lines (HT-29, A-549, and MCF-7) by flow cytometry after 24 h of treatment with the corresponding compounds. Compounds were used at a 100 or 10 μM concentration depending on their IC50 value (see Table 1 in Materials and Methods section). The presence of both targets in the membrane was relatively determined by using DMSO-treated cells as a negative control.
(§3) To study the effect of the compounds on every biological target in cancer cell lines the compounds were used at a 100 or 10 μM dose, depending on their IC50 and the treated cell line.
(§4) For the assay, 10^5 cells per well were incubated for 24 h with the corresponding dose of the tested compound in a total volume of 500 μL of their growth media.
To detect membrane PD-L1 and VEGFR-2, after the cell treatments, they were collected, fixed with 4% in PBS paraformaldehyde, and stained with FITC Mouse monoclonal Anti-Human VEGFR-2 (ab184903) and Alexa Fluor® 647 Rabbit monoclonal Anti-PD-L1 (ab215251).

[6] = target: T2, membrane VEGFR-2 (mVEGFR-2) (Homo sapiens, UniProt P35968); assay: Membrane VEGFR-2 relative quantification by flow cytometry; assay type: cell-based; conditions: 24 h, 100 or 10 μM (Table 7), sorafenib 10 μM, percentage referred to DMSO control
T2 construct: endogenous in cells; host or cells: HT-29, A-549, MCF-7
Method: The presence of both targets in the membrane was relatively determined by using DMSO-treated cells as a negative control.
as §4

[7] = target: T3, total PD-L1 (tPD-L1) (Homo sapiens, UniProt Q9NZQ7); assay: Total PD-L1 relative quantification by flow cytometry; assay type: cell-based; conditions: for tPD-L1 relative detection, A-549 / tPD-L1 relative detection, HT-29 / tPD-L1 relative detection, MCF-7: 24 h, 100 or 10 μM (Table 7), relative to DMSO control
T3 construct: endogenous in cells; host or cells: HT-29, A-549, MCF-7
Method: (§5) The study was carried out again on HT-29, A-549, and MCF-7 cell lines by flow cytometry after 24 h of treatment with the corresponding compounds. The presence of the targets in the whole cell were relatively determined by using DMSO-treated cells as a negative control and BMS-8 as a positive one for PD-L1 (Table 3).
as §3, §4
(§6) For the detection of total PD-L1, VEGFR-2, and c-Myc, the procedure was the same as for membrane targets, but after fixation, a treatment with 0,5% in PBS TritonTM X-100 was performed. The antibodies used for PD-L1 and VEGFR-2 were the ones previously described, and for the detection of c-Myc, it was FITC Rabbit monoclonal anti-c-Myc (ab223913).

[8] = system: c-Myc; assay: c-Myc relative quantification by flow cytometry; assay type: cell-based, human; conditions: 24 h, 100 or 10 μM (Table 7), relative to DMSO control
Method: as §5, §3, §4, §6

T1 sequence (Q9NZQ7 19-290): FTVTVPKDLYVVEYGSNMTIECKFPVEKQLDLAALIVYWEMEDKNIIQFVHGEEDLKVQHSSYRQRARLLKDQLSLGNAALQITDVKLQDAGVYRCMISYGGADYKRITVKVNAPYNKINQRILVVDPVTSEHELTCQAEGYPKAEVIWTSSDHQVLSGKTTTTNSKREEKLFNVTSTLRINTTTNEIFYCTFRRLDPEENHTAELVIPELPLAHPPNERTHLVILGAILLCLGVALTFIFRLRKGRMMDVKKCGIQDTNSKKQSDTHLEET
T3 sequence (Q9NZQ7 19-290): as above
T2 sequence (P35968 20-1356): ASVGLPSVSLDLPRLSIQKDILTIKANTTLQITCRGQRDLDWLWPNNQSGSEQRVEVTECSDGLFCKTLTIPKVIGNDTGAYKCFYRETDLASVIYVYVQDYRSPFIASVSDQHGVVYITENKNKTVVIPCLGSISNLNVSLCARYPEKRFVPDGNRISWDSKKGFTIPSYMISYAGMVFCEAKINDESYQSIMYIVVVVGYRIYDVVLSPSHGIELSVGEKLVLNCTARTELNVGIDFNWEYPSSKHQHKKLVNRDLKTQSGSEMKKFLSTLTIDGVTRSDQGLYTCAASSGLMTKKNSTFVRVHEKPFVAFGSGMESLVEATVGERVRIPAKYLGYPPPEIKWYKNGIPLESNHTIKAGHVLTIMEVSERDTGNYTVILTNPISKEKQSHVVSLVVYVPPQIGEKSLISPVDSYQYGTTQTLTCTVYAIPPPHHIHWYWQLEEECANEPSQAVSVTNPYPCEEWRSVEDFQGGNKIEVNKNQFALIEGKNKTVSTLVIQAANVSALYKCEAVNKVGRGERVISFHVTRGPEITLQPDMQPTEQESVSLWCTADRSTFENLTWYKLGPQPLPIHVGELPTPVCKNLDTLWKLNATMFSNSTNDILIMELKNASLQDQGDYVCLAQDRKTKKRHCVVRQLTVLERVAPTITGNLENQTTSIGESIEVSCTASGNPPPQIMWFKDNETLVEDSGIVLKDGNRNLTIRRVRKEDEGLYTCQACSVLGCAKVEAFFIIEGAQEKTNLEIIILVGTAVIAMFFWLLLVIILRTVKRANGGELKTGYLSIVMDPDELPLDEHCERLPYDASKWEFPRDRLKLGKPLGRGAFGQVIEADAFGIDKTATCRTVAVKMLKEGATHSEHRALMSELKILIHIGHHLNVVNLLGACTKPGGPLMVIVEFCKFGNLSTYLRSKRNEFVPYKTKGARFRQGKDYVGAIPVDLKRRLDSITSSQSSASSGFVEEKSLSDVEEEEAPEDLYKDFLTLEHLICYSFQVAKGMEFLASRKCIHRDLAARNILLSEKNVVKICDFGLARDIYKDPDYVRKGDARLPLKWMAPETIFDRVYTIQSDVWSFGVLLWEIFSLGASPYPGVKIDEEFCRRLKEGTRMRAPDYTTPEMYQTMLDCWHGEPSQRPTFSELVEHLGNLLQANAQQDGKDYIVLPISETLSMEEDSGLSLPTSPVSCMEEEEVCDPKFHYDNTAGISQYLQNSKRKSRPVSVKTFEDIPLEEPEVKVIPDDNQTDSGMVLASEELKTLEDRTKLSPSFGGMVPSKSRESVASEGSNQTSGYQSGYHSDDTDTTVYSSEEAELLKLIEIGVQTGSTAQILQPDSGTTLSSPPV

Structure (SMILES) | IC50 [1] [µM] | IC50 [2] [µM] | IC50 [3] [µM] | IC50 [4] [µM] | mPD-L1 relative detection, A-549 [5] [%] | mPD-L1 relative detection, HT-29 [5] [%] | mPD-L1 relative detection, MCF-7 [5] [%] | mVEGFR-2 relative detection, A-549 [6] [%] | mVEGFR-2 relative detection, HT-29 [6] [%] | mVEGFR-2 relative detection, MCF-7 [6] [%] | tPD-L1 relative detection, A-549 ([7]; A-549) [%] | Inhibition of total PD-L1, A-549 ([7]; A-549, compared to non-treated cells) [%] | tPD-L1 relative detection, HT-29 [7] [%] | tPD-L1 relative detection, MCF-7 [7] [%] | c-Myc relative detection, A-549 [8] [%] | c-Myc relative detection, HT-29 [8] [%] | c-Myc relative detection, MCF-7 [8] [%] | melting point [°C]
Cc1ccc(Cn2cc(-c3ccc(N)cc3)nn2)cc1 [Compound 17, 4-(1-(4-methylbenzyl)-1H-1,2,3-triazol-4-yl)aniline] | 8 ± 2 | 1.7 | 4 ± 1 | 4 ± 2 | 88 ± 21 | 87 ± 14 | 89 ± 5 | >100 | 81 ± 1 | >100 | 56 ± 19 | ~50 | >100 | >100 | >100 | >100 | 63 ± 2 | 130 to 132
COc1ccccc1Cn1cc(-c2ccc(N)cc2)nn1 [Compound 18, 4-(1-(2-methoxybenzyl)-1H-1,2,3-triazol-4-yl)aniline] | > 100 | > 100 | > 100 | > 100 | 89 ± 9 | 61 ± 22 | 81 ± 2 | >100 | 93 ± 1 | >100 | 91 ± 4 |  | 70 ± 11 | >100 | >100 | >100 | 53 ± 3 | 166 to 167
Brc1ccccc1Cn1cc(-c2ccccc2)nn1 [Compound 11, 1-(2-bromobenzyl)-4-phenyl-1H-1,2,3-triazole] |  |  |  |  |  |  |  |  |  |  |  |  |  |  |  |  |  | 100 to 103
Brc1cccc(Cn2cc(-c3ccccc3)nn2)c1 [Compound 12, 1-(3-bromobenzyl)-4-phenyl-1H-1,2,3-triazole] |  |  |  |  |  |  |  |  |  |  |  |  |  |  |  |  |  | 96 to 99
Clc1ccccc1Cn1cc(-c2ccccc2)nn1 [Compound 8, 1-(2-chlorobenzyl)-4-phenyl-1H-1,2,3-triazole] |  |  |  |  |  |  |  |  |  |  |  |  |  |  |  |  |  | 86 to 88
Clc1ccc(Cn2cc(-c3ccccc3)nn2)cc1 [Compound 10, 1-(4-chlorobenzyl)-4-phenyl-1H-1,2,3-triazole] |  |  |  |  |  |  |  |  |  |  |  |  |  |  |  |  |  | 141 to 144
Nc1ccc(-c2cn(Cc3cccc(Br)c3)nn2)cc1 [Compound 25, 4-(1-(3-bromobenzyl)-1H-1,2,3-triazol-4-yl)aniline] | 8.5 |  | 8 ± 4 | 4 ± 3 | >100 | 87 ± 17 | 87 ± 17 | >100 | >100 | >100 | 76 ± 1 |  | 48 ± 7 | >100 | >100 | >100 | 56 ± 10 | 134 to 135
